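Method: 48-hour compound exposure of cells in 96-well plates, five concentrations, linear interpolation of endpoints. At the GI50, growth is halved.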 The source made the active and inactive calls. Rule as the data show it: active = GI50 up to about 1.1 µM and inactive = higher.
Assays:
Test in all cases: DTP human tumour cell line panel, 48 h
EKVX = system: EKVX
MDA-MB-231 = system: MDA-MB-231
NCI-H23 = system: NCI-H23
U-251 = system: U-251
Malme-3M = system: Malme-3M
ACHN = system: ACHN
MCF7 = system: MCF7
MDA-MB-435 = system: MDA-MB-435
SK-MEL-28 = system: SK-MEL-28
SNB-19 = system: SNB-19
OVCAR-4 = system: OVCAR-4
A498 = system: A498
K562 = system: K562
SK-MEL-5 = system: SK-MEL-5
UACC-257 = system: UACC-257
SN12C = system: SN12C
RXF 393 = system: RXF 393
NCI-H460 = system: NCI-H460
UACC-62 = system: UACC-62
HL-60 = system: HL-60

Measured: GI50

CC(C)(C)OC/C=C1\C(=O)O[C@H]2C[C@@H](O[Si](C)(C)C(C)(C)C)C[C@@H]12
inactive: EKVX > 100 µM | MDA-MB-231 > 100 µM | NCI-H23 52.4 µM | U-251 83 µM | Malme-3M > 100 µM | ACHN > 100 µM | MCF7 35.4 µM | MDA-MB-435 96.2 µM | SK-MEL-28 > 100 µM | SNB-19 > 100 µM | OVCAR-4 92.3 µM | A498 > 100 µM | K562 26.1 µM | SK-MEL-5 > 100 µM | UACC-257 62.4 µM | SN12C > 100 µM | RXF 393 32.2 µM | NCI-H460 > 100 µM

O=c1[nH]nc(-c2ccccc2)n1/N=C\CC/C=N\n1c(-c2ccccc2)n[nH]c1=O
inactive: EKVX 44.3 µM | UACC-62 17.6 µM | MDA-MB-231 29.2 µM | NCI-H23 14.3 µM | U-251 40.6 µM | Malme-3M 25.2 µM | ACHN 36.6 µM | MCF7 26.7 µM | MDA-MB-435 22.7 µM | SK-MEL-28 23 µM | SNB-19 45.1 µM | OVCAR-4 52.4 µM | HL-60 29.2 µM | K562 31.1 µM | SK-MEL-5 21.6 µM | UACC-257 > 82.2 µM | SN12C 20.3 µM | RXF 393 > 67.5 µM | NCI-H460 > 47.6 µM

O=C1Nc2ccc(Cl)cc2C(=O)N2CCC[C@@H]12
inactive: EKVX > 100 µM | UACC-62 > 100 µM | MDA-MB-231 > 100 µM | NCI-H23 > 100 µM | U-251 > 100 µM | Malme-3M > 100 µM | ACHN > 100 µM | MCF7 > 100 µM | MDA-MB-435 > 100 µM | SK-MEL-28 > 100 µM | SNB-19 > 100 µM | OVCAR-4 > 100 µM | A498 > 100 µM | K562 > 100 µM | SK-MEL-5 > 100 µM | UACC-257 > 100 µM | SN12C > 100 µM | RXF 393 60.3 µM | NCI-H460 > 100 µM

N#Cc1sc2nc3ccccc3n2c1N
inactive: EKVX 85.1 µM | UACC-62 62.4 µM | MDA-MB-231 76.4 µM | NCI-H23 52.5 µM | U-251 83.9 µM | Malme-3M > 100 µM | ACHN 92.3 µM | MCF7 84.5 µM | MDA-MB-435 > 100 µM | SK-MEL-28 > 100 µM | SNB-19 > 100 µM | OVCAR-4 > 100 µM | A498 39.4 µM | SK-MEL-5 95.7 µM | UACC-257 > 100 µM | RXF 393 17.6 µM

Oc1ccc2c3c1OC1c4[nH]ncc4C[C@H]4[C@@H](C2)N(CC2CC2)CC[C@]314 (some centres undefined)
inactive: EKVX > 100 µM | UACC-62 > 100 µM | MDA-MB-231 > 100 µM | NCI-H23 > 100 µM | U-251 > 100 µM | Malme-3M > 100 µM | ACHN > 100 µM | MCF7 > 100 µM | MDA-MB-435 > 100 µM | SK-MEL-28 > 100 µM | SNB-19 > 100 µM | OVCAR-4 > 100 µM | HL-60 > 100 µM | K562 99.5 µM | SK-MEL-5 > 100 µM | UACC-257 > 100 µM | SN12C > 100 µM | RXF 393 > 100 µM | NCI-H460 > 100 µM

CC(=O)C(CN1C(=O)c2ccccc2C1=O)C(C)=O
inactive: EKVX > 100 µM | UACC-62 > 100 µM | MDA-MB-231 > 100 µM | NCI-H23 > 100 µM | U-251 > 100 µM | ACHN > 100 µM | MCF7 > 100 µM | MDA-MB-435 > 100 µM | SK-MEL-28 > 100 µM | SNB-19 > 100 µM | OVCAR-4 > 100 µM | A498 > 100 µM | K562 > 100 µM | SK-MEL-5 > 100 µM | UACC-257 > 100 µM | SN12C > 100 µM | RXF 393 23.1 µM | NCI-H460 > 100 µM

From ChEMBL document CHEMBL1201862, “PubChem BioAssay data set” (2004)
